Where two headings read alike, the source gives them in different places. Square brackets hold non-standard residues; d marks the D form. Peptide text beside a SMILES is read from it.
Key:
DENV2 [1] = experiment: Pre-binding FFU assay (reversibility of peptide binding); assay type: cell-based, dengue virus
Description: Experiments were conducted further to characterize observed inhibitory effects and determine whether these may have been due to unintended interference owing to modifications of target LLC-MK2 cell surfaces. RI57 was incubated with target cells for 1 h at 4° C., the monolayer cells were then rinsed with PBS, and approximately 200 FFU of DENV2 allowed to infect the cells at 4° C. Agarose overlays, incubation, and immunological detection tests were conducted as described above for the focus-forming assay.
In this assay, DN57 or RI57 was added to target cells for 1 h prior to infection with DENV2 to determine whether these peptides inhibit entry through interaction directly with target cells. […] Table 5. (and also FIG. 7) presents results showing that peptide binding can be reversible. (and FIG. 5.). Introducing a step diluting the concentration of peptide 10-fold after incubating/1 h at 20° C. and then infecting immediately thereafter reverses this inhibition. Errors around the means are depicted as ±sd.

DENV2 [2] = experiment: qRT-PCR virus-binding assay; assay type: cell-based, dengue virus
Description: Further to characterize DENV binding to host cells, experiments were conducted to analyze the first step in the process of infection. Infection of LLC-MK2 target cells in six-well plates was executed in duplicate using 10^5 FFU of DENV2 pre-incubated 45 min at 4° C. with either DN57, or RI57 peptide, or pooled heterotypic anti-DENV human serum. Following said 45 min exposure at 4° C., infected monolayers were washed with PBS and harvested by cell scraping, added to a 1.5 ml microfuge tube containing 350 μl AR-200 silicone oil (Sigma-Aldrich, St. Louis, Mo.), mixed with 150 μl silicone fluid (Thomas, Swedesboro, N.J.), and microfuge spun 1 min at 14,000 rpm to separate unbound virus from cell-bound virus. The tubes were then submerged in liquid nitrogen for 30 sec to freeze the contents. The cell pellets with (or without) bound virus were recovered by removing the bottoms of the tubes with small wire clippers and placing them in 15 ml conical tubes. By means of the Qiagen Viral RNA Extraction Kit (Qiagen, Chatsworth, Calif.), viral RNA was extracted from cell pellets.
Using the Quantitect SYBR Green RT-PCR kit (Qiagen Inc., Chatsworth, Calif.), qRT-PCR was performed on the extracted RNA. Manufacturer's specifications and amplification protocols were followed utilizing dengue-specific primers: (DenF: 5-[…]-3 and DenR: 5-[…]-3). […] The following amplification protocol was used: 50° C. for 20 min to reverse transcribe the RNA; 95° C. for 15 min to activate the HotStart Taq DNA Polymerase; 45 PCR cycles: 94° C. for 15 sec; 50° C. for 15 sec; 72° C. for 30 sec; and fluorescence data acquisition was the final step. […]
To test whether DN57 and RI57 interfere directly with virus binding to target cells, binding assays were conducted using qRT-PCR to monitor attachment of virus to target cells. […] RNA was then extracted from the cell pellets and amplified with DENV2-specific primers to quantitate the presence of virus. […]

trypsin = conditions: peptide incubated in trypsin at 37° C. before adding STI
Description: The image documents 10-20% gradient gels run electrophoretically (e-gel), labeled with Imperial Protein Stain, and photographed. An e-gel was performed for each peptide, stained with Imperial stain, and photographed. The arrow markers show both the identity of the peptide run and its final location after migration. For each peptide assessment, lanes 1 contain peptide alone; lanes 2, peptide plus soybean trypsin inhibitor (STI); and lanes 3, peptide incubated in trypsin at 37° C. before adding STI.

DENV2 [3] = experiment: LLC-MK2 FFU assay after trypsin exposure of peptide; assay type: cell-based, dengue virus
Description: Table 7. […] The peptides were exposed to trypsin for ten minutes at 37° C. before STI was added and further incubated ten minutes. The resulting peptide, in each case, was incubated with DENV2 for 1 hour at 20° C. and then this preparation used to infect confluent LLC-MK2 monolayers.

DENV2 [4] = experiment: Post-binding FFU assay; assay type: cell-based, dengue virus; conditions: DN57 added after virus bound at 4° C.; data not shown, see Costin, et al., 2010
Description: Experiments were conducted further to characterize observed inhibitory effects as to whether these may have been due to interference with interactions occurring pre-binding, versus post-binding, of virions and LLC-MK2 target cells. An estimated 200 FFU of DENV2 were allowed to interact with target cells for 1 h at 4° C., permitting binding while preventing internalization. Unbound virus was washed off with PBS at 4° C., DN57 added, and the cultures incubated at 4° C. for 1 h, again washed in 4° C. PBS, and then warmed to 37° C. Finally, agarose overlays, incubation, and immunological detection assays were performed as described for the focus-forming assay.
Inasmuch as it was determined that inhibition by DN57 occurs at a viral-entry step, whether infection could still be inhibited after virus had bound to the surface of target cells was tested. In these experiments, virus was allowed to bind to cells at 4° C., then treated with increasing concentrations of DN57 before warming the cells to 37° C. providing conditions in favor of viral progression.

DENV2 [5] = experiment: Post-entry FFU assay; assay type: cell-based, dengue virus; conditions: any DN57 concentration; data not shown, see Costin, et al., 2010
Description: Experiments were conducted further to characterize observed inhibitory effects to determine whether they actually may have been due to interference with post-entry steps in the viral life cycle. To this end, approximately 200 FFU of DENV2 (without DN57) were allowed the opportunity to bind and then enter target LLC-MK2 cells for 1 h at 37° C. as described for the focus-forming assay. Any unbound virus was then removed by rinsing with PBS. Next, DN57 was added to the cells post-entry for 1 h at 37° C. Cultures again were washed with PBS and agarose overlays, incubation, and immunological detection assessments were performed as described for the focus-forming assay.

[6] = 1:2 dilution of NHS, 37° C., 24 h
Description: Lane 1 contains peptide alone/time=0; lane 2, peptide at 37° C./time=24 h; lane 3, peptide in a 1:2 dilution of NHS/time=0; lane 4, peptide in a 1:2 dilution of NHS @ 37° C./time=24 h; and lane 5, a 1:2 dilution of NHS with no peptide at 37° C./time=24 h.

in vitro = conditions: rhesus monkey, LLC-MK2 cells (confluent monolayers)
Description: Possible direct cytotoxicity caused by peptide exposure to proliferating LLC-MK2 monolayers was measured using the TACS™ MTT cell proliferation assay (R&D Systems, Inc., Minneapolis, Minn.) according to the manufacturer's instructions. The MTT assay detects and measures mitochondrial reductase activity observable in viable cells. […] A Tecan GeniosPro plate reader (Tecan US, Durham, N.C.) was used to measure absorbance at 560 nm.
Error bars show ±standard deviations (±sd) of the means with an asterisk indicating instances of statistically-significant differences from control according to Dunnett's post hoc test (p<0.05).

DENV2 [7] = system: DENV2
Description: (§1) Twenty-four hours prior to infection, LLC-MK2 target cells were seeded at a density of 1.0×10^5 cells per well of an E-well plate. Approximately 200 FFU of virus were incubated with or without peptides in serum-free DMEM for 1 h at 20° C. Virus/peptide or virus/control mixtures were allowed to infect confluent target cell monolayers for 1 h at 37° C., rocking every 15 min, after which time the medium was aspirated and monolayers overlaid with fresh DMEM plus v/v 10% FBS containing v/v 0.85% Sea-Plaque Agarose (Cambrex Bio Science, Rockland, Me.). To allow proper setting, monolayers with agar overlays were incubated 20 min at 4° C. Next, infected cells were incubated at 37° C. with 5% CO2 for three days (DENV1, -3, and -4) or five days (DENV2). Then, infected cultures were fixed with 10% formalin overnight at 4° C., permeabilized with v/v 70% ethanol for 20 min, and rinsed with phosphate-buffered saline, pH 7.4 (PBS) prior to immunostaining. Viral foci were detected and enumerated using supernatant from mouse anti-DENV hybridoma E60 (obtained from the Department of Pathology & Immunology, Washington University, St. Louis, Mo.) followed by horseradish peroxidase-conjugated goat anti-mouse immunoglobulin (Pierce, Rockford, Ill.) and developed using AEC chromogen substrate (Dako, Carpinteria, Calif.). Results have been expressed as an average of two independent trials (at least) with three replicates each.

DENV2 [8] = conditions: as previously observed; cited from earlier work

Description for DENV1: as §1
Description for DENV3: as §1
Description for DENV4: as §1

## CSCC[C@H](NC(=O)[C@H](Cc1c[nH]c2ccccc12)NC(=O)[C@@H](N)CCCNC(=N)N)C(=O)N[C@H](C(=O)N[C@@H](Cc1c[nH]c2ccccc12)C(=O)N[C@@H](CCCNC(=N)N)C(=O)N[C@@H](Cc1c[nH]cn1)C(=O)N[C@@H](Cc1c[nH]c2ccccc12)C(=O)N[C@@H](Cc1ccccc1)C(=O)N[C@@H](Cc1c[nH]cn1)C(=O)N[C@@H](CCCNC(=N)N)C(=O)N[C@@H](CC(C)C)C(=O)N[C@@H](CCCNC(=N)N)C(=O)N[C@@H](CC(C)C)C(=O)N1CCC[C@H]1C(=O)N[C@@H](Cc1ccc(O)cc1)C(=O)N[C@@H](CC(N)=O)C(=O)N1CCC[C@H]1C(=O)NCC(=O)N[C@@H](CCCCN)C(=O)N[C@@H](CC(N)=O)C(=O)N[C@@H](CCCCN)C(=O)N[C@@H](CCC(N)=O)C(=O)N[C@@H](CC(N)=O)C(=O)N[C@@H](CCC(N)=O)C(=O)N[C@@H](CCC(N)=O)C(=O)N[C@@H](Cc1c[nH]c2ccccc12)C(=O)N1CCC[C@H]1C(=O)O)C(C)C [DN57, reference compound] (H-RWMVWRHWFHRLRLPYNPGKNKQNQQWP-OH; N-terminus and C-terminus assumed)
DENV2 [1]; PBS Rinse (text: peptide diluted 10-fold after incubation, then infecting)
  % DENV2 Infection Inhibition: −2.8%
DENV2 [1]; incubation with 10 μM/1 h at 20° C., no rinse
  % DENV2 Infection Inhibition: 83.1%
DENV2 [1]; peptide added to target cells for 1 h prior to infection
  inhibition on treatment of target cells with peptide prior to DENV2 infection: no evidence of inhibition
DENV2 [2]; DENV2 + 20 uM peptide
  % Infection Inhibition: 96.4%
DENV2 [2]; DENV2 + 20 uM peptide + Trypsin + STI
  % Infection Inhibition: 5.2%
DENV2 [2]; virus co-incubated with peptide 45 min at 4° C.
  binding of virus to cells: inhibit binding of virus to cells
trypsin
  trypsin cleavage (e-gel): degraded
DENV2 [3]; DENV2 + 20 uM peptide
  % Infection Inhibition: 96.4%
DENV2 [3]; DENV2 + 20 uM peptide + Trypsin + STI (trypsin ten minutes at 37° C.)
  % Infection Inhibition: 5.2%
DENV2 [3]; trypsin ten minutes at 37° C. before STI
  DENV2 inhibitory activity after trypsin exposure: did not
DENV2 [4]
  DENV-2 infection after virus binding to cells, before entry: inhibits DENV-2 infection
DENV2 [5]
  viral replication when peptide added post-entry: no inhibition of viral replication was observed
[6]
  degradation in normal human serum (e-gel): absent
In vitro
  viability at 24 h, 0.1 µM: 100%
  viability at 24 h, 0.5 µM: 98.6%
  viability at 24 h, 1 µM: 100%
  viability at 24 h, 5 µM: 97.8%
  viability at 24 h, 10 µM: 95.9%
  viability at 24 h, 15 µM: 92.8%
  viability at 24 h, 20 µM: 76.4%
  viability at 24 h, 25 µM: 80.2%
  viability at 24 h, 30 µM: 54.7%
  viability at 24 h, 35 µM: 55.1%
  viability at 24 h, 40 µM: 50.6%

## CSCC[C@@H](NC(=O)[C@H](NC(=O)[C@@H](Cc1c[nH]c2ccccc12)NC(=O)[C@@H](CCCNC(=N)N)NC(=O)[C@@H](Cc1c[nH]cn1)NC(=O)[C@@H](Cc1c[nH]c2ccccc12)NC(=O)[C@@H](Cc1ccccc1)NC(=O)[C@@H](Cc1c[nH]cn1)NC(=O)[C@@H](CCCNC(=N)N)NC(=O)[C@@H](CC(C)C)NC(=O)[C@@H](CCCNC(=N)N)NC(=O)[C@@H](CC(C)C)NC(=O)[C@H]1CCCN1C(=O)[C@@H](Cc1ccc(O)cc1)NC(=O)[C@@H](CC(N)=O)NC(=O)[C@H]1CCCN1C(=O)CNC(=O)[C@@H](CCCCN)NC(=O)[C@@H](CC(N)=O)NC(=O)[C@@H](CCCCN)NC(=O)[C@@H](CCC(N)=O)NC(=O)[C@@H](CC(N)=O)NC(=O)[C@@H](CCC(N)=O)NC(=O)[C@@H](CCC(N)=O)NC(=O)[C@@H](Cc1c[nH]c2ccccc12)NC(=O)[C@H]1CCCN1)C(C)C)C(=O)N[C@H](Cc1c[nH]c2ccccc12)C(=O)N[C@H](CCCNC(=N)N)C(=O)O [RI57] (H-[dP][dW][dQ][dQ][dN][dQ][dK][dN][dK]G[dP][dN][dY][dP][dL][dR][dL][dR][dH][dF][dW][dH][dR][dW][dV][dM][dW][dR]-OH; N-terminus and C-terminus assumed)
trypsin
  trypsin cleavage (e-gel): resistant to trypsin cleavage
DENV1; 0.1 uM peptide
  % Inhibition DENV1: 2.4%
DENV1; 0.5 uM peptide
  % Inhibition DENV1: 16.2%
DENV1; 1.0 uM peptide
  % Inhibition DENV1: −43.6%
DENV1; 5.0 uM peptide
  % Inhibition DENV1: 63.8%
DENV1; 10.0 uM peptide
  % Inhibition DENV1: 97.3%
DENV1; 20.0 uM peptide
  % Inhibition DENV1: 100.0%
DENV1; DENV1, sigmoidal curve-fitting to dose-response curve
  IC50: 4.6 µM
DENV2 [7]; 0.1 uM peptide
  % Inhibition DENV2: 6.2%
DENV2 [7]; 0.5 uM peptide
  % Inhibition DENV2: −1.7%
DENV2 [7]; 1.0 uM peptide
  % Inhibition DENV2: −5.9%
DENV2 [7]; 5.0 uM peptide
  % Inhibition DENV2: 4.3%
DENV2 [7]; 10.0 uM peptide
  % Inhibition DENV2: 69.8%
DENV2 [7]; 20.0 uM peptide
  % Inhibition DENV2: 97.8%
DENV2 [7]; DENV2, sigmoidal curve-fitting to dose-response curve
  IC50: 7.4 µM
DENV3; 0.1 uM peptide
  % Inhibition DENV3: 15.1%
DENV3; 0.5 uM peptide
  % Inhibition DENV3: 3.3%
DENV3; 1.0 uM peptide
  % Inhibition DENV3: −73.1%
DENV3; 5.0 uM peptide
  % Inhibition DENV3: −9.7%
DENV3; 10.0 uM peptide
  % Inhibition DENV3: 63.3%
DENV3; 20.0 uM peptide
  % Inhibition DENV3: 90.1%
DENV3; DENV3, sigmoidal curve-fitting to dose-response curve
  IC50: 5.9 µM
DENV4; 0.1 uM peptide
  % Inhibition DENV4: 18.9%
DENV4; 0.5 uM peptide
  % Inhibition DENV4: −0.7%
DENV4; 1.0 uM peptide
  % Inhibition DENV4: −11.8%
DENV4; 5.0 uM peptide
  % Inhibition DENV4: −41.8%
DENV4; 10.0 uM peptide
  % Inhibition DENV4: 55.5%
DENV4; 20.0 uM peptide
  % Inhibition DENV4: 94.4%
[6]
  degradation in normal human serum (e-gel): remains completely intact
In vitro
  viability at 24 h, 0.1 µM: 95.9%
  viability at 24 h, 0.5 µM: 96.5%
  viability at 24 h, 1 µM: 95%
  viability at 24 h, 5 µM: 95.9%
  viability at 24 h, 10 µM: 95.3%
  viability at 24 h, 15 µM: 100%
  viability at 24 h, 20 µM: 101%
  viability at 24 h, 25 µM: 101%
  viability at 24 h, 30 µM: 104%
  viability at 24 h, 35 µM: 94.3%
  viability at 24 h, 40 µM: 92%

## heparin sulfate
DENV2 [8]
  binding of dengue virus to cells (control): dramatically reduces binding of dengue virus to cells

— US10639380B2, “Flavivirus-binding, entry-obstructing, protease-resistant peptide (RI57)” (priority 2016, dated 2020)
